According to ChEMBL document CHEMBL1139639, “A three-residue, continuous binding epitope peptidomimetic of ShK toxin as a Kv1.3 inhibitor” (Bioorg Med Chem Lett, 2005):

Target: Potassium voltage-gated channel subfamily A member 3 (Mus musculus, UniProt P16390)
Assay: Effective concentration against murine voltage-gated potassium channel subunit Kv1.3 expressed in L929 cells using patch clamp
Format: cell-based

Sequence of Potassium voltage-gated channel subfamily A member 3 (P16390 whole entry): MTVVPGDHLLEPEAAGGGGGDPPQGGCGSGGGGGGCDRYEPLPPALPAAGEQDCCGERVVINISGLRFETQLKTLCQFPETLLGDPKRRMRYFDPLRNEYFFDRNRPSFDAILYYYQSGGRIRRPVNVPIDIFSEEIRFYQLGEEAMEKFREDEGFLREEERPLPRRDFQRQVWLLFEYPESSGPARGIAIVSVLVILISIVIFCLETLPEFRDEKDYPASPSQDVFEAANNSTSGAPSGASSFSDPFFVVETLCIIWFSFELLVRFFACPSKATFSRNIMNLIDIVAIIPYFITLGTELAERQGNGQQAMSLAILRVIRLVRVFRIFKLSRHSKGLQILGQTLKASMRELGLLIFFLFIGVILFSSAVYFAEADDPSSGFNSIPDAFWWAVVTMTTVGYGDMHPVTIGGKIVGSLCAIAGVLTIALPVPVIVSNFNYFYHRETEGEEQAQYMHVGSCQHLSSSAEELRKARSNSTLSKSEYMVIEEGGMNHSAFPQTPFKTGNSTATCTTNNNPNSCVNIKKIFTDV

EC50: 75 µM
SMILES: NCCCCNC(=O)c1ccc(CN=C(N)N)c2ccn(CCc3ccccc3)c12
